These results are taken from patent publication US9163018B2, “Method of treatment of age-related macular degeneration (AMD)” (Prana Biotechnology Limited, priority 2006, dated 2015).

pIC50: −log10 of the molar value.

The target in one series is T1, Aβ 1-42 (Homo sapiens, UniProt P05067).
T1 construct: The reaction solutions contained Aβ 1-42 at concentrations
The experiment in a line: Fluorometric H2O2 assay (inhibition of Abeta H2O2 production). The format is biochemical. To be noted: concentration required to inhibit 50% of Abeta H2O2 production; read-out: H2O2 IC50. The essentials: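 Copper-dependent Aβ H2O2 production measured fluorometrically with deacetylated dichlorofluorescein plus HRP in PBS, pH 7.4. Incubation 60 min at 37 C, test compound included in wells. H2O2 quantified against H2O2 standards.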

The test system of series [1] is primary cortical neuronal cultured cells. In words: Test compound cytotoxicity, MTS assay, primary cortical neuronal cultures. The class given is cell-based, mouse. To be noted: for Cytotox (% viable) Neuronal cells at 1 μM: 1 μM test compound; for Cytotox (% viable) Neuronal cells at 10 μM: 10 μM test compound. The essentials: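 Primary cortical neurons were cultured five days in Neurobasal/B27, then exposed on day six to compounds (from 2.5 mM DMSO stocks) in medium minus antioxidants, in triplicate for 4 days at 37° C. Viability was measured by MTS, 2 h at 37° C, absorbance at 560 nm.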

For series [2], the system named is Abeta in extract of post-mortem human AD brain tissue. The experiment in a line: BAS: human brain amyloid solubilization assay. To be noted: for BAS max effect: max effect across the concentration range, referenced to baseline PBS; for BAS concentration or concentration range at which an effect is observed: units printed in each cell. The format is biochemical. The method, then: Assay 5. Human Brain Amyloid Solubilization Assay
This assay was performed in order to assess the ability of a test compound to mobilise Aβ, as an example form of amyloid, from the insoluble to the soluble phase of an extract of tissue from post mortem human AD brain.
Up to 0.5 g of plaque-bearing cortex without meninges was homogenized using a DIAX 900 homogenizer (Hendolph and Co, Kelheim, Germany) or other suitable device for three 30-second periods at full speed in 2 ml of ice-cold phosphate-buffered saline, pH 7.4. To obtain the phosphate-buffered saline-extractable fraction, the homogenate was centrifuged at 100,000×g for 30 min and the supernatant removed. Alternatively, the tissue was freeze dried then pulverized to form a powder which was then weighed out into aliquots for extraction as above. Supernatant, either freeze-dried and resuspended or in unconcentrated form, was dissolved in 200 μl of Tris-Tricine sodium dodecyl sulfate (SDS) sample buffer pH 8.3 containing 8% SDS, 10% 2-mercaptoethanol. Aliquots (10 μl) were then boiled for 10 minutes before SDS-polyacrylamide gel electrophoresis. The insoluble fraction of the cortical samples was obtained by resuspending the initial pelleted sample in 1 ml of phosphate-buffered saline, A 50-μl aliquot of this suspension was then boiled in […] of sample buffer as above.
Tris-Tricine polyacrylamide gel electrophoresis was performed by loading appropriately diluted samples on to 10% to 20% gradient gels (Novex, San Diego, Calif.) followed by transfer on to 0.2-μm nitrocellulose membrane (Bio-Rad, Hercules, Calif.). Aβ was detected by using monoclonal antibody W02, which detects residues 5 through 8, […] (or another suitable antibody) in conjunction with horseradish peroxidase-conjugated rabbit anti-mouse IgG (Dako, Denmark), and visualized by using enhanced chemiluminescence (eg ECL; Amersham Life Science, Buckinghamshire, UK). Each gel included three lanes containing 0.5, 1, and 2 ng of synthetic Aβ40 (Keck Laboratory, Yale University, New Haven, Conn.) as reference standards.
Blot films were scanned by using a suitable imaging system such as the UVP gel documentation system, and densitometry performed using suitable software, eg UVP Labworks. The dynamic range of the film/scanner was determined by using a step tablet (No. 911ST600, Kodak, Rochester N.Y.), a calibrated film exposed by the manufacturer to provided steps of known increasing intensity. The quantifiable range of signal intensity for densitometric analysis of the mono- and dimeric Aβ bands was based on the comparison with a curve obtained by scanning and densitometry of the step tablet.
All samples were analyzed at least twice, and gel loadings and dilutions were adjusted to fit within the quantifiable region of the standard curve. The proportion of ‘soluble’ to ‘insoluble’ Aβ may be used to determine the efficiency of extraction of a test compound compared with the efficiency of a known compound. The insoluble Aβ being comprised of the pelletable fraction derived from the insoluble amyloid plaque from the above cortical samples and the soluble fraction comprising monomeric and/or oligomeric soluble Aβ.

T1 sequence (P05067 672-713 limits assumed): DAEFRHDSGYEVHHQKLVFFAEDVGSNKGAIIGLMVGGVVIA

For orientation: pIC50 means −log10 of the IC50, conventionally taken in molar units. Regarding `COc1ccc(-c2cc(Cl)c3cccnc3c2O)cc1` [PB 814], at Aβ 1-42, the negative-log IC50 (pIC50) was above 5.96. Further, in series [1], the “Cytotox (% viable) Neuronal cells at 1 μM” value was determined as 97% and the “Cytotox (% viable) Neuronal cells at 10 μM” value is 31%. Besides, the BAS max effect in series [2] is recorded as 209%.
The corresponding values for `Cc1ccccc1-c1cc(-c2ccccc2C)c2cccnc2c1O` [PB 852] are 5.68, 93%, 34% and 220%.
As for `Oc1c(Br)cc(-c2cc(F)cc(F)c2)c2cccnc12` [PB 853], at Aβ 1-42, the pIC50 was 6.11. Moreover, in series [1], the “Cytotox (% viable) Neuronal cells at 1 μM” value is on record as “Neuronal cells: 95, 95%” and the “Cytotox (% viable) Neuronal cells at 10 μM” value was “Neuronal cells: 95, 95%”. The same molecule gave a BAS max effect in series [2] of 221%.
As to `Cc1ccccc1-c1cc(Cl)c2cccnc2c1O` [PB 854], the pIC50 on Aβ 1-42 is 6.11. In addition, in series [1], the “Cytotox (% viable) Neuronal cells at 1 μM” value is “Neuronal cells: 100, 100%” and the “Cytotox (% viable) Neuronal cells at 10 μM” value was “Neuronal cells: 100, 100%”. For the same molecule, the BAS max effect in series [2] came to 520%.
Take `Cc1cccc(-c2cc(Cl)c3cccnc3c2O)c1` [PB 859]: the negative-log IC50 (pIC50) at Aβ 1-42 was above 6.17. Also, in series [1], the “Cytotox (% viable) Neuronal cells at 1 μM” value was found to be 98% and the “Cytotox (% viable) Neuronal cells at 10 μM” value amounted to 73%. Also, the BAS max effect in series [2] came out at 266%.
As to `Oc1c(I)cc(-c2ccccc2C(F)(F)F)c2cccnc12` [PB 860], on Aβ 1-42, the pIC50 is 6.10. For the same molecule, in series [1], the “Cytotox (% viable) Neuronal cells at 1 μM” value is recorded as 91% and the “Cytotox (% viable) Neuronal cells at 10 μM” value is 90%. The same molecule gave a BAS max effect in series [2] of 160%.
The matching figures for `COc1ccccc1-c1cc(-c2ccccc2OC)c2cccnc2c1O` [PB 862]: above 6.11, 100%, 52% and 256%.
Turning to `COc1ccccc1-c1cc(I)c(O)c2ncccc12` [PB 863], at Aβ 1-42, the negative-log IC50 (pIC50) is above 6.14. In addition, in series [1], the “Cytotox (% viable) Neuronal cells at 1 μM” value was determined as 91% and the “Cytotox (% viable) Neuronal cells at 10 μM” value is 35%. The BAS max effect in series [2] stood at 386%.
Consider `Oc1c(-c2ccccc2C(F)(F)F)cc(Cl)c2cccnc12` [PB 864], for which the negative logarithm of the IC50 (pIC50) on Aβ 1-42 was 6.11. In series [1], the “Cytotox (% viable) Neuronal cells at 1 μM” value is recorded as 96% and the “Cytotox (% viable) Neuronal cells at 10 μM” value was determined as 93%. The same molecule came in with a BAS max effect in series [2] of 208%.
Take `Cc1ccc(-c2ccc(C)cn2)nc1` [PB 896]: at Aβ 1-42, the negative-log IC50 (pIC50) is 6.82. Besides, the “Cytotox (% viable) Neuronal cells at 10 μM” value in series [1] was “Neuronal cells: 86% (at 10 uM)”. In addition, in series [2], the BAS max effect is recorded as 358%.
Consider `FC(F)(F)CSc1cccc2cccnc12` [PB 913], for which the pIC50 at Aβ 1-42 is 6.00. In addition, in series [1], the “Cytotox (% viable) Neuronal cells at 1 μM” value came out at 100% and the “Cytotox (% viable) Neuronal cells at 10 μM” value was determined as 95%. This molecule registered a BAS max effect in series [2] of 450%.
For `CN1CCCN(C)CCN(C)CCCN(C)CC1` [PB 933], on Aβ 1-42, the pIC50 was 6.96. Besides, the “Cytotox (% viable) Neuronal cells at 10 μM” value in series [1] was “Neuronal cells: 127% (at 10 μM)”. The BAS max effect in series [2] stood at 279%.
As for `Oc1ccccc1-c1cc(Cl)c2cccnc2c1O` [PB 947], the negative logarithm of the IC50 (pIC50) at Aβ 1-42 is 5.94. In series [1], the “Cytotox (% viable) Neuronal cells at 1 μM” value is listed as 100% and the “Cytotox (% viable) Neuronal cells at 10 μM” value was 70%. This molecule displayed a BAS max effect in series [2] of 244%.
In the case of `O=C(NCCc1cnc[nH]1)c1ccc2cccc(O)c2n1` [PB 948], the negative-log IC50 (pIC50) at Aβ 1-42 was 6.82. Besides, in series [1], the “Cytotox (% viable) Neuronal cells at 1 μM” value is given as 100, 100% and the “Cytotox (% viable) Neuronal cells at 10 μM” value is reported as 100, 100%. Besides, the BAS max effect in series [2] amounted to 576%.
Consider `O=C(NCc1ccccn1)c1ccc2cccc(O)c2n1` [PB 949], for which, at Aβ 1-42, the negative-log IC50 (pIC50) is 6.37. Moreover, in series [1], the “Cytotox (% viable) Neuronal cells at 1 μM” value worked out at 96% and the “Cytotox (% viable) Neuronal cells at 10 μM” value came out at 85%. Further, the BAS max effect in series [2] is 201%.
For `O=C(NCCc1ccccn1)c1ccc2cccc(O)c2n1` [PB 950], on Aβ 1-42, the pIC50 was 6.82. For the same molecule, in series [1], the “Cytotox (% viable) Neuronal cells at 1 μM” value was 95% and the “Cytotox (% viable) Neuronal cells at 10 μM” value was found to be 93%. Also, the BAS max effect in series [2] is 741%.
On to `O=C(Nc1nccs1)c1ccc2cccc(O)c2n1` [PB 952], for which the pIC50 at Aβ 1-42 is 6.57. Besides, in series [1], the “Cytotox (% viable) Neuronal cells at 1 μM” value is “Neuronal cells: 100, 100%” and the “Cytotox (% viable) Neuronal cells at 10 μM” value is “Neuronal cells: 100, 100%”. The BAS max effect in series [2] was 268%.
Take `Cc1cnc(NC(=O)c2ccc3cccc(O)c3n2)s1` [PB 953]: the pIC50 on Aβ 1-42 is above 6.38. For the same molecule, in series [1], the “Cytotox (% viable) Neuronal cells at 1 μM” value turned out to be 94% and the “Cytotox (% viable) Neuronal cells at 10 μM” value amounted to 68%. In series [2], this molecule gave a BAS max effect of 325%.
As for `O=C(NCCc1cnc[nH]1)c1cc(O)c2cccc(O)c2n1` [PB 954], the negative logarithm of the IC50 (pIC50) on Aβ 1-42 was 6.92. Moreover, in series [1], the “Cytotox (% viable) Neuronal cells at 1 μM” value is given as “Neuronal cells: 100, 100%” and the “Cytotox (% viable) Neuronal cells at 10 μM” value is reported as “Neuronal cells: 100, 100%”. Further, in series [2], the BAS max effect came out at 134% and the “BAS concentration or concentration range at which an effect is observed” value was determined as 1 µM.
`NCCNC(=O)c1ccc2cccc(O)c2n1` [PB 957]: the negative-log IC50 (pIC50) at Aβ 1-42 was below 5.00. Moreover, in series [1], the “Cytotox (% viable) Neuronal cells at 1 μM” value is 106% and the “Cytotox (% viable) Neuronal cells at 10 μM” value is 96%. For the same molecule, in series [2], the BAS max effect is recorded as 190% and the “BAS concentration or concentration range at which an effect is observed” value is given as 1 μM, 100 μM.
On to `O/N=C/c1ccc2cccc(O)c2n1` [PB 969], for which, at Aβ 1-42, the negative-log IC50 (pIC50) is 6.27. In addition, in series [1], the “Cytotox (% viable) Neuronal cells at 1 μM” value worked out at 100% and the “Cytotox (% viable) Neuronal cells at 10 μM” value was found to be 95%. Further, the BAS max effect in series [2] stood at 385%.
The corresponding values for `O=C(CNC(=O)c1cc(O)c2cccc(O)c2n1)NCCc1c[nH]cn1` [PB 987] are 5.74, 98%, 89% and 393%.
Take `O=C(CNC(=O)c1cc(O)c2cccc(O)c2n1)NCc1ccccn1` [PB 988]: the pIC50 on Aβ 1-42 was below 5.00. In addition, in series [1], the “Cytotox (% viable) Neuronal cells at 1 μM” value is listed as “Neuronal cells: 93, 93%” and the “Cytotox (% viable) Neuronal cells at 10 μM” value is recorded as “Neuronal cells: 93, 93%”. This molecule had a BAS max effect in series [2] of 137%.
On to `CN(CCc1ccccn1)Cc1ccc2cccc(O)c2n1` [PB 990], for which the pIC50 at Aβ 1-42 was 6.40. Besides, in series [1], the “Cytotox (% viable) Neuronal cells at 1 μM” value came out at 97% and the “Cytotox (% viable) Neuronal cells at 10 μM” value is recorded as 57%. The BAS max effect in series [2] worked out at 183%.
Regarding `Oc1cccc2ccc(CNCc3ccccn3)nc12` [PB 991], the pIC50 at Aβ 1-42 was 6.33. Further, in series [1], the “Cytotox (% viable) Neuronal cells at 1 μM” value came to 96% and the “Cytotox (% viable) Neuronal cells at 10 μM” value is on record as 67%. In addition, the BAS max effect in series [2] was 222%.
